The values that follow come from patent US5344850A, “Topical composition for preventing or treating acne vulgaris” (Takasago International Corporation, priority 1992, dated 1994).

The subject of assay [1] is Propionibacterium acnes. Briefly: Minimum growth inhibitory concentration (MIC) on Propionibacterium acnes (Test Example 1). Type of assay: cell-based, Propionibacterium acnes (ATCC 6919). The settings on record: for MIC: Cutibacterium acnes; for Antibacterial activity (in words): inhibition of proliferation of Propionibacterium acnes, as compared with eugenol. How it is done: The minimum growth inhibitory concentrations (MIC) of the compounds (2) and (3) as obtained in Production Examples 1 and 2 on Propionibacterium acnes were determined in the following manner.
59.0 g of a GAM (Gifu anaerobic medium) bouillon medium (manufactured by Nissui Pharmaceutical Co., Ltd.) was dissolved in 1 liter of purified water and a test compound was added thereto so as to give a concentration of 100 μg/ml. A serial 2-fold dilution of the mixture thus obtained was made with the medium followed by sterilization. 10 ml portions of the mixture were pipetted into test tubes and each inoculated with 0.1 ml of Propionibacterium acnes (ATCC 6919) which had been pre-incubated to give a cell concentration of 1×10^8 cells/mi. After stationary incubation under anaerobic conditions for 48 hours, the turbidity was measured at a wavelength of 660 nm. […] For comparison, MIC of eugenol, which had been known as having a relatively strong antibacterial activity, on Propionibacterium acnes was determined.

Assay [2] deals with Staphylococcus epidermidis, Pseudomonas aeruginosa, Corynebacterium species, Aerobacter kleps and Candida albicans. The settings on record: in words; cited from earlier work.
Assay [3] relates to Propionibacterium acnes. The settings on record: cited from earlier work.
Where [4] appears, read: Propionibacterium acnes, GAM bouillon medium, anaerobic, 48 hours, turbidity at 660 nm, read-out: MIC.

≈ marks a conversion by molar mass, not a printed value. Read-outs that look alike come from different tables or passages of the source.

With `CC(C)CCCC(C)CCCC(C)CCCC(C)O` (centres unmarked) [compound (2), 6,10,14-trimethylpentadecan-2-ol], the minimum inhibitory concentration (MIC) (usually the least concentration at which growth counts as inhibited) in the assay on Propionibacterium acnes [1] (48 h) came to 3.13 µg/mL (≈ 11.6 µM). For the same compound, the “Antibacterial activity (in words)” value in the assay with Propionibacterium acnes [1] is listed as “intense antibacterial activity”.
Regarding `CC(C)=CCCC(C)=CCCC(C)=CCCC(C)O` (centres unmarked) [compound (3), 6,10,14-trimethyl-5,9,13-pentadecatrien-2-ol], in the assay with Propionibacterium acnes [1] (setting [4]), the minimum inhibitory concentration (MIC) worked out at 1.56 µg/mL (≈ 5.9 µM). Moreover, the “Antibacterial activity (in words)” value with Propionibacterium acnes [1] is “intense antibacterial activity”.
In the case of `C=CCc1ccc(O)c(OC)c1` [eugenol], the minimal inhibitory concentration (MIC) in the assay on Propionibacterium acnes [1] (setting [4]) turned out to be 50 µg/mL (≈ 304 µM).
Consider `CC(C)=CCCC(C)=CCCC(C)=CCO` [farnesol, 3,7,11-trimethyldodeca-2,6,10-trien-1-ol], for which the growth inhibitory effect entry in assay [2] is on record as “exhibits a growth inhibitory effect”. The “antibacterial activity, used alone” value in the assay with Propionibacterium acnes [3] (farnesol used alone) is “little activity”. For the same compound, the “antibacterial activity, used in combination” value in the assay with Propionibacterium acnes [3] (in combination with phenyl hydroxyalkyl ether and glycerol monolaurate) is on record as “exhibits an antibacterial activity”.
